Laboratory results reported in patent US20130212744A1, “METHOD OF REDUCING INSECT-VECTORED VIRAL INFECTIONS” (priority 2010, published 2013).

Tested on: whitefly Bemisia tabaci adults
Assay: Soil use (drench) field trial on tomato, efficacy on whitefly adults
Assay type: in vivo
Conditions: for Emax at 12.5 g/ha: 12.5 g ai/ha; for Emax at 25 g/ha: 25 g ai/ha; for Emax at 100 g/ha: 100 g ai/ha; for Emax at 150 g/ha: 150 g ai/ha
Procedure: Two soil applied studies were carried out in Elhasanya, Egypt in 2009 on tomato plants with the main goal to measure efficacy on the whitefly Bemisia tabaci. The plot size was 4.8 m^2 and 6 replicates were used in the trial. Products were applied once on young tomato plants at BBCH stage 14 as a drench. The spray volume was at the first application 350 l/ha. The evaluation of this study was done counting the adult whiteflies (Bemisia tabaci) as well as the nymphs and the eggs in each plot. In addition to the direct whitefly effect, visual symptoms of the virus, mainly TYLCV (tomato yellow leaf curl virus) were evaluated also.

CSC(=O)c1cccc2nnsc12 [ASM, S-methyl benzo[1,2,3]thiadiazole-7-carbothioate]
Emax at 12.5 g/ha (120 h, 5DAA, Trial 1): 40% | Emax at 12.5 g/ha (120 h, 5DAA, Trial 2): 29% | Emax at 25 g/ha (120 h, 5DAA, Trial 1): 50% | Emax at 25 g/ha (120 h, 5DAA, Trial 2): 36% | Emax at 12.5 g/ha (240 h, 10DAA, Trial 1): 41% | Emax at 12.5 g/ha (240 h, 10DAA, Trial 2): 34% | Emax at 25 g/ha (240 h, 10DAA, Trial 1): 44% | Emax at 25 g/ha (240 h, 10DAA, Trial 2): 45% | Emax at 12.5 g/ha (360 h, 15DAA, Trial 1): 58% | Emax at 12.5 g/ha (360 h, 15DAA, Trial 2): 35% | Emax at 25 g/ha (360 h, 15DAA, Trial 1): 64% | Emax at 25 g/ha (360 h, 15DAA, Trial 2): 45% | Emax at 12.5 g/ha (480 h, 20DAA, Trial 1): 39% | Emax at 12.5 g/ha (480 h, 20DAA, Trial 2): 31% | Emax at 25 g/ha (480 h, 20DAA, Trial 1): 42% | Emax at 25 g/ha (480 h, 20DAA, Trial 2): 43% | Emax at 12.5 g/ha (600 h, 25DAA, Trial 1): 29% | Emax at 12.5 g/ha (600 h, 25DAA, Trial 2): 25% | Emax at 25 g/ha (600 h, 25DAA, Trial 1): 31% | Emax at 25 g/ha (600 h, 25DAA, Trial 2): 35% | Emax at 12.5 g/ha (720 h, 30DAA, Trial 1): 22% | Emax at 12.5 g/ha (720 h, 30DAA, Trial 2): 19% | Emax at 25 g/ha (720 h, 30DAA, Trial 1): 26% | Emax at 25 g/ha (720 h, 30DAA, Trial 2): 30% | Emax at 12.5 g/ha (840 h, 35DAA, Trial 1): 14% | Emax at 12.5 g/ha (840 h, 35DAA, Trial 2): 12% | Emax at 25 g/ha (840 h, 35DAA, Trial 1): 26% | Emax at 25 g/ha (840 h, 35DAA, Trial 2): 23% | Emax at 12.5 g/ha (960 h, 40DAA, Trial 1): 5% | Emax at 12.5 g/ha (960 h, 40DAA, Trial 2): 9% | Emax at 25 g/ha (960 h, 40DAA, Trial 1): 5% | Emax at 25 g/ha (960 h, 40DAA, Trial 2): 10%

CNC(=O)c1cc(C#N)cc(C)c1NC(=O)c1cc(Br)nn1-c1ncccc1Cl [CYNT, 3-bromo-1-(3-chloro-2-pyridyl)-4′-cyano-2′-methyl-6′-(methylcarbamoyl)pyrazole-5-carboxanilide]
Emax at 100 g/ha (120 h, 5DAA, Trial 1): 79% | Emax at 100 g/ha (120 h, 5DAA, Trial 2): 70% | Emax at 150 g/ha (120 h, 5DAA, Trial 1): 83% | Emax at 150 g/ha (120 h, 5DAA, Trial 2): 76% | Emax at 100 g/ha (240 h, 10DAA, Trial 1): 75% | Emax at 100 g/ha (240 h, 10DAA, Trial 2): 71% | Emax at 150 g/ha (240 h, 10DAA, Trial 1): 75% | Emax at 150 g/ha (240 h, 10DAA, Trial 2): 80% | Emax at 100 g/ha (360 h, 15DAA, Trial 1): 78% | Emax at 100 g/ha (360 h, 15DAA, Trial 2): 76% | Emax at 150 g/ha (360 h, 15DAA, Trial 1): 79% | Emax at 150 g/ha (360 h, 15DAA, Trial 2): 83% | Emax at 100 g/ha (480 h, 20DAA, Trial 1): 72% | Emax at 100 g/ha (480 h, 20DAA, Trial 2): 74% | Emax at 150 g/ha (480 h, 20DAA, Trial 1): 74% | Emax at 150 g/ha (480 h, 20DAA, Trial 2): 82% | Emax at 100 g/ha (600 h, 25DAA, Trial 1): 66% | Emax at 100 g/ha (600 h, 25DAA, Trial 2): 72% | Emax at 150 g/ha (600 h, 25DAA, Trial 1): 69% | Emax at 150 g/ha (600 h, 25DAA, Trial 2): 80% | Emax at 100 g/ha (720 h, 30DAA, Trial 1): 61% | Emax at 100 g/ha (720 h, 30DAA, Trial 2): 65% | Emax at 150 g/ha (720 h, 30DAA, Trial 1): 67% | Emax at 150 g/ha (720 h, 30DAA, Trial 2): 71% | Emax at 100 g/ha (840 h, 35DAA, Trial 1): 53% | Emax at 100 g/ha (840 h, 35DAA, Trial 2): 57% | Emax at 150 g/ha (840 h, 35DAA, Trial 1): 59% | Emax at 150 g/ha (840 h, 35DAA, Trial 2): 62% | Emax at 100 g/ha (960 h, 40DAA, Trial 1): 39% | Emax at 100 g/ha (960 h, 40DAA, Trial 2): 43% | Emax at 150 g/ha (960 h, 40DAA, Trial 1): 45% | Emax at 150 g/ha (960 h, 40DAA, Trial 2): 45%
